± gives the standard deviation of the averaged measurements.
How the values were obtained:
Test in all cases: relative viability vs DMSO control (72 h) (fraction); higher = more viable cells
A204 = tested on: A204
Outline: (§1)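 Plates held 72 h at 37 °C and 5% CO2 contained sarcoma cell lines seeded in 384-well format to reach 80–90% confluence, plus 2.5 µl of serially diluted compound added after 24 h. Source plate concentrations ran from 10 mM to 0.0002 mM, with 0.1% DMSO as vehicle and a 5 µM positive control. Percent growth from ATPLite readings, averaged over up to triplicate wells, gave relative viability. Values were rescaled with 1 as full and 0 as none.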

G401 = tested on: G401
Outline: as §1

HS729 = tested on: HS729
Outline: as §1

HT1080 = tested on: HT1080
Outline: as §1

KHOS-NP = tested on: KHOS-NP
Outline: as §1

MES-SA = tested on: MES-SA
Outline: as §1

SK-LMS-1 = tested on: SK-LMS-1
Outline: as §1

SW1353 = tested on: SW1353
Outline: as §1

SW684 = tested on: SW684
Outline: as §1

SW872 = tested on: SW872
Outline: as §1

SYO-1 = tested on: SYO-1
Outline: as §1

VA-ES-BJ = tested on: VA-ES-BJ
Outline: as §1

CN1CCN(c2ccc(C(=O)Nc3n[nH]c4ccc(Cc5cc(F)cc(F)c5)cc34)c(NC3CCOCC3)c2)CC1 [Entrectinib]
Conditions | relative viability
A204, 0.00017 µM | 1.05 ± 0.059
A204, 0.00051 µM | 1.06 ± 0.09
A204, 0.00152 µM | 1.04 ± 0.053
A204, 0.00457 µM | 1.06 ± 0.062
A204, 0.01372 µM | 1.09 ± 0.04
A204, 0.04115 µM | 1.04 ± 0.042
A204, 0.1235 µM | 1.02 ± 0.058
A204, 0.3704 µM | 1.05 ± 0.075
A204, 1.111 µM | 1.04 ± 0.064
A204, 3.333 µM | 0.865 ± 0.072
A204, 10 µM | 0.228 ± 0.11
G401, 0.00017 µM | 1.04 ± 0.037
G401, 0.00051 µM | 1.01 ± 0.035
G401, 0.00152 µM | 1.057 ± 0.0092
G401, 0.00457 µM | 1.07 ± 0.021
G401, 0.01372 µM | 1.03 ± 0.038
G401, 0.04115 µM | 1.01 ± 0.016
G401, 0.1235 µM | 1.011 ± 0.0094
G401, 0.3704 µM | 0.979 ± 0.015
G401, 1.111 µM | 0.87 ± 0.064
G401, 3.333 µM | 0.651 ± 0.058
G401, 10 µM | 0.163 ± 0.13
HS729, 0.00017 µM | 1.06 ± 0.037
HS729, 0.00051 µM | 0.975 ± 0.043
HS729, 0.00152 µM | 0.931 ± 0.047
HS729, 0.00457 µM | 0.948 ± 0.015
HS729, 0.01372 µM | 0.946 ± 0.031
HS729, 0.04115 µM | 0.959 ± 0.056
HS729, 0.1235 µM | 0.925 ± 0.013
HS729, 0.3704 µM | 0.919 ± 0.039
HS729, 1.111 µM | 0.832 ± 0.027
HS729, 3.333 µM | 0.665 ± 0.0099
HS729, 10 µM | 0.382 ± 0.016
HT1080, 0.00017 µM | 1.095 ± 0.0097
HT1080, 0.00051 µM | 1.13 ± 0.025
HT1080, 0.00152 µM | 1.1 ± 0.031
HT1080, 0.00457 µM | 1.08 ± 0.015
HT1080, 0.01372 µM | 1.08 ± 0.026
HT1080, 0.04115 µM | 1.09 ± 0.07
HT1080, 0.1235 µM | 1.08 ± 0.0091
HT1080, 0.3704 µM | 1.06 ± 0.026
HT1080, 1.111 µM | 1.06 ± 0.021
HT1080, 3.333 µM | 0.952 ± 0.034
HT1080, 10 µM | 0.349 ± 0.045
KHOS-NP, 0.00017 µM | 1.08 ± 0.016
KHOS-NP, 0.00051 µM | 1.1 ± 0.036
KHOS-NP, 0.00152 µM | 1.07 ± 0.039
KHOS-NP, 0.00457 µM | 1.08 ± 0.011
KHOS-NP, 0.01372 µM | 1.06 ± 0.022
KHOS-NP, 0.04115 µM | 1.05 ± 0.031
KHOS-NP, 0.1235 µM | 1.04 ± 0.013
KHOS-NP, 0.3704 µM | 1.03 ± 0.013
KHOS-NP, 1.111 µM | 1.01 ± 0.017
KHOS-NP, 3.333 µM | 0.98 ± 0.044
KHOS-NP, 10 µM | 0.602 ± 0.056
MES-SA, 0.00017 µM | 0.942 ± 0.038
MES-SA, 0.00051 µM | 0.942 ± 0.031
MES-SA, 0.00152 µM | 0.931 ± 0.049
MES-SA, 0.00457 µM | 0.925 ± 0.049
MES-SA, 0.01372 µM | 0.899 ± 0.013
MES-SA, 0.04115 µM | 0.904 ± 0.033
MES-SA, 0.1235 µM | 0.892 ± 0.021
MES-SA, 0.3704 µM | 0.893 ± 0.02
MES-SA, 1.111 µM | 0.821 ± 0.015
MES-SA, 3.333 µM | 0.702 ± 0.021
MES-SA, 10 µM | 0.364 ± 0.045
SK-LMS-1, 0.00017 µM | 1.13 ± 0.025
SK-LMS-1, 0.00051 µM | 1.1 ± 0.037
SK-LMS-1, 0.00152 µM | 1.12 ± 0.035
SK-LMS-1, 0.00457 µM | 1.13 ± 0.032
SK-LMS-1, 0.01372 µM | 1.1 ± 0.038
SK-LMS-1, 0.04115 µM | 1.07 ± 0.016
SK-LMS-1, 0.1235 µM | 1.07 ± 0.024
SK-LMS-1, 0.3704 µM | 1.072 ± 0.0048
SK-LMS-1, 1.111 µM | 1.03 ± 0.029
SK-LMS-1, 3.333 µM | 0.856 ± 0.053
SK-LMS-1, 10 µM | 0.0143 ± 0.0037
SW684, 0.00017 µM | 1.14 ± 0.056
SW684, 0.00051 µM | 1.17 ± 0.018
SW684, 0.00152 µM | 1.14 ± 0.029
SW684, 0.00457 µM | 1.2 ± 0.041
SW684, 0.01372 µM | 1.15 ± 0.039
SW684, 0.04115 µM | 1.15 ± 0.046
SW684, 0.1235 µM | 1.16 ± 0.021
SW684, 0.3704 µM | 1.12 ± 0.045
SW684, 1.111 µM | 1.1 ± 0.086
SW684, 3.333 µM | 0.971 ± 0.017
SW684, 10 µM | -0.0109 ± 0.0017
SW872, 0.00017 µM | 1.11 ± 0.048
SW872, 0.00051 µM | 1.09 ± 0.056
SW872, 0.00152 µM | 1.1 ± 0.095
SW872, 0.00457 µM | 1.07 ± 0.064
SW872, 0.01372 µM | 1.05 ± 0.09
SW872, 0.04115 µM | 1.05 ± 0.061
SW872, 0.1235 µM | 1.03 ± 0.09
SW872, 0.3704 µM | 0.961 ± 0.047
SW872, 1.111 µM | 0.887 ± 0.076
SW872, 3.333 µM | 0.66 ± 0.088
SW872, 10 µM | 0.218 ± 0.054
SW1353, 0.00017 µM | 1.04 ± 0.011
SW1353, 0.00051 µM | 1.05 ± 0.021
SW1353, 0.00152 µM | 1.01 ± 0.017
SW1353, 0.00457 µM | 1.01 ± 0.015
SW1353, 0.01372 µM | 0.976 ± 0.012
SW1353, 0.04115 µM | 0.985 ± 0.025
SW1353, 0.1235 µM | 0.9886 ± 0.0051
SW1353, 0.3704 µM | 0.9517 ± 0.0048
SW1353, 1.111 µM | 0.953 ± 0.034
SW1353, 3.333 µM | 0.782 ± 0.058
SW1353, 10 µM | 0.0075 ± 0.00089
SYO-1, 0.00017 µM | 1.03 ± 0.036
SYO-1, 0.00051 µM | 0.998 ± 0.031
SYO-1, 0.00152 µM | 1.02 ± 0.037
SYO-1, 0.00457 µM | 0.953 ± 0.025
SYO-1, 0.01372 µM | 0.979 ± 0.022
SYO-1, 0.04115 µM | 0.948 ± 0.027
SYO-1, 0.1235 µM | 0.925 ± 0.022
SYO-1, 0.3704 µM | 0.851 ± 0.018
SYO-1, 1.111 µM | 0.765 ± 0.0029
SYO-1, 3.333 µM | 0.529 ± 0.025
SYO-1, 10 µM | -0.0142 ± 0.0039
VA-ES-BJ, 0.00017 µM | 1.09 ± 0.032
VA-ES-BJ, 0.00051 µM | 1.08 ± 0.02
VA-ES-BJ, 0.00152 µM | 1.06 ± 0.043
VA-ES-BJ, 0.00457 µM | 1.05 ± 0.033
VA-ES-BJ, 0.01372 µM | 1.06 ± 0.047
VA-ES-BJ, 0.04115 µM | 1.03 ± 0.026
VA-ES-BJ, 0.1235 µM | 1.022 ± 0.0078
VA-ES-BJ, 0.3704 µM | 1.01 ± 0.015
VA-ES-BJ, 1.111 µM | 0.976 ± 0.03
VA-ES-BJ, 3.333 µM | 0.894 ± 0.027
VA-ES-BJ, 10 µM | 0.575 ± 0.052
